The target in the first assay is T1, HiBiT-tagged MDM2 (Homo sapiens, UniProt Q00987).
T1 construct: expressed in transfected cells
T1 sequence (Q00987 whole entry): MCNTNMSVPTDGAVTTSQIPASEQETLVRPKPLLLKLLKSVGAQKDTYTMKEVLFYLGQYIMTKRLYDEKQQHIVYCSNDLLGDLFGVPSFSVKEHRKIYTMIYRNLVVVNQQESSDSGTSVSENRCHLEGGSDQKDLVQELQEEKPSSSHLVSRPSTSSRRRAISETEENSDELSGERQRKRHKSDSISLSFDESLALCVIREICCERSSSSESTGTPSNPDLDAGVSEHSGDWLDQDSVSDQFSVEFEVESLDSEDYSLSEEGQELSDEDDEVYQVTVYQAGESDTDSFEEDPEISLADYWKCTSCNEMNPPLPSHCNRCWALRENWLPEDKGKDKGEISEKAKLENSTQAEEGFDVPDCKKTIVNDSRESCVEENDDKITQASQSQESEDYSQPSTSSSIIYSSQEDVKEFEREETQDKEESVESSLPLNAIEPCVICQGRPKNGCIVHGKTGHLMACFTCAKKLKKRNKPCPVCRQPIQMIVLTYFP
In words: MDM2 HiBit HEK293T degradation. Particulars: HEK293T cells stably expressing C-terminally HiBiT-tagged MDM2; 4 h; read-out: MDM2 HiBit HEK293T degradation 4 h: Average external-Abs DC50. In kind it is cell-based. The protocol: HEK293T cells were grown overnight to 70-80% confluency in a 6-well plate in complete media (DMEM 10% FBS) in a 37° C. incubator with 5% CO2. Cells were transfected with 1 micrograms of C- or N-terminally HiBiT-tagged MDM2 constructs using Fugene 6 transfection reagent (Promega) as per manufacturer protocol. After overnight incubation at 37° C., growth media within the wells was replaced with selection media (DMEM+10% FBS+1 microgram/ml final concentration of Puromycin). Puromycin (selection antibiotic) concentrations required for complete cell kill were determined previously. Cells were monitored for the next 48h-96h to select for positively transfected cells. Surviving colonies were pooled and expanded in selection media. Expanded pools of HEK293T cells stably expressing C- and N-terminally HiBiT-tagged MDM2, were characterized using a MDM2 tool degrader and HaloPROTAC3 as positive control. HEK293T cells expressing C-terminally HiBiT-tagged MDM2 were subsequently used for assessment of degradation potencies for MDM2 degraders.
The letter codes for MDM2 degradation potency (DC50) include: A (<10 nM), B […], C (>100-1000 nM), and D (>1000 nM).
Background: HiBiT is a short tag that completes a luciferase, so light tracks the accessible tagged protein.
On to `Cn1c(=O)n(C2CCC(=O)NC2=O)c2ccc(CCCO[C@@H]3C[C@@H](C(=O)O)N(C[C@H]4CC[C@H](NC(=O)[C@@H]5NC6(CCCCC6)[C@@]6(C(=O)Nc7cc(Cl)ccc76)[C@H]5c5cccc(Cl)c5F)CC4)C3)cc21` (stereo partly drawn) [I-198], for which the DC50 (as a rule, the midpoint of the concentration-degradation curve) was in the range of 100 to 1000 nM.
Same read-out and setting: under `Cn1c(=O)n(C2CCC(=O)NC2=O)c2ccc(CCCO[C@@H]3C[C@H](C(=O)O)N(C[C@H]4CC[C@H](NC(=O)[C@@H]5NC6(CCCCC6)[C@@]6(C(=O)Nc7cc(Cl)ccc76)[C@H]5c5cccc(Cl)c5F)CC4)C3)cc21` (stereo partly drawn) [I-199] stands 10 to 100 nM; under `Cn1c(=O)n(C2CCC(=O)NC2=O)c2ccc(O[C@@H]3C[C@@H](C(=O)O)N(C[C@H]4CC[C@H](NC(=O)[C@@H]5NC6(CCCCC6)[C@@]6(C(=O)Nc7cc(Cl)ccc76)[C@H]5c5cccc(Cl)c5F)CC4)C3)cc21` (stereo partly drawn) [I-200], 10 to 100 nM; under `Cn1c(=O)n(C2CCC(=O)NC2=O)c2ccc(CCCN3CCN(C[C@H]4CC[C@H](NC(=O)[C@@H]5NC6(CCCCC6)[C@@]6(C(=O)Nc7cc(Cl)ccc76)[C@H]5c5cccc(Cl)c5F)CC4)C(C(=O)O)C3)cc21` (stereo partly drawn) [I-202], less than 10 nM.
Consider `Cn1c(=O)n(C2CCC(=O)NC2=O)c2ccc(N3CCC(CC4(C(=O)O)CCN(C[C@H]5CC[C@H](NC(=O)[C@@H]6NC7(CCCCC7)[C@@]7(C(=O)Nc8cc(Cl)ccc87)[C@H]6c6cccc(Cl)c6F)CC5)CC4)CC3)cc21` (stereo partly drawn) [I-203], for which the DC50 is less than 10 nM.
Same read-out and setting: under `Cc1ncsc1-c1ccc(CNC(=O)[C@@H]2C[C@@H](O)CN2C(=O)[C@@H](NC(=O)C2(F)CC2)C(C)(C)C)c(OCCCC2CCN(C[C@H]3CC[C@H](NC(=O)[C@@H]4NC5(CCCCC5)[C@@]5(C(=O)Nc6cc(Cl)ccc65)[C@H]4c4cccc(Cl)c4F)CC3)CC2)c1` [I-204] stands more than 1000 nM.
Regarding `O=C(O)Cn1c(=O)n(C2CCC(=O)NC2=O)c2ccc(C3CCN(C[C@H]4CC[C@H](NC(=O)[C@@H]5NC6(CCCCC6)[C@@]6(C(=O)Nc7cc(Cl)ccc76)[C@H]5c5cccc(Cl)c5F)CC4)CC3)cc21` (stereo partly drawn) [I-206], the DC50 fell in the range of 10 to 100 nM.
For the molecule `O=C1CCN(c2ccc(CCCCN3CCN(C[C@H]4CC[C@H](NC(=O)[C@@H]5NC6(CCCCC6)[C@@]6(C(=O)Nc7cc(Cl)ccc76)[C@H]5c5cccc(Cl)c5F)CC4)CC3)cc2)C(=O)N1` [I-208], the DC50 was more than 1000 nM.
`Cn1c(=O)n(C2CCC(=O)NC2=O)c2ccc(CC3(CC(=O)O)CCN(C[C@H]4CC[C@H](NC(=O)[C@@H]5NC6(CCCCC6)[C@@]6(C(=O)Nc7cc(Cl)ccc76)[C@H]5c5cccc(Cl)c5F)CC4)CC3)cc21` (stereo partly drawn) [I-210]: the DC50 was 10 to 100 nM.
Consider `Cn1c(=O)n(C2CCC(=O)NC2=O)c2ccc(CCCCCN3CCN(C[C@H]4CC[C@H](NC(=O)[C@@H]5NC6(CCCCC6)[C@@]6(C(=O)Nc7cc(Cl)ccc76)[C@H]5c5cccc(Cl)c5F)CC4)[C@H](C(=O)O)C3)cc21` (stereo partly drawn) [I-211], for which the DC50 was less than 10 nM.
`Cn1c(=O)n(C2CCC(=O)NC2=O)c2ccc(CCCCCN3CCN(C[C@H]4CC[C@H](NC(=O)[C@@H]5NC6(CCCCC6)[C@@]6(C(=O)Nc7cc(Cl)ccc76)[C@H]5c5cccc(Cl)c5F)CC4)[C@@H](C(=O)O)C3)cc21` (stereo partly drawn) [I-212]: the DC50 is less than 10 nM.
Same read-out and setting: in the case of `Cn1c(=O)n(C2CCC(=O)NC2=O)c2ccc(CCCCN3CCN(C[C@H]4CC[C@H](NC(=O)[C@@H]5NC6(CCCCC6)[C@@]6(C(=O)Nc7cc(Cl)ccc76)[C@H]5c5cccc(Cl)c5F)CC4)[C@H](C(=O)O)C3)cc21` (stereo partly drawn) [I-213] it was less than 10 nM.
Same read-out and setting: in the case of `Cn1c(=O)n(C2CCC(=O)NC2=O)c2ccc(CCCCN3CCN(C[C@H]4CC[C@H](NC(=O)[C@@H]5NC6(CCCCC6)[C@@]6(C(=O)Nc7cc(Cl)ccc76)[C@H]5c5cccc(Cl)c5F)CC4)[C@@H](C(=O)O)C3)cc21` (stereo partly drawn) [I-214] it was less than 10 nM; in that of `Cn1c(=O)n(C2CCC(=O)NC2=O)c2ccc(CCCN3CCN(C[C@H]4CC[C@H](NC(=O)[C@@H]5NC6(CCCCC6)[C@@]6(C(=O)Nc7cc(Cl)ccc76)[C@H]5c5cccc(Cl)c5F)CC4)[C@@H](C(=O)O)C3)cc21` (stereo partly drawn) [I-216], less than 10 nM.
As for `Cn1c(=O)n(C2CCC(=O)NC2=O)c2ccc(CCCN3CCN(C[C@H]4CC[C@H](NC(=O)[C@@H]5NC6(CCCCC6)[C@@]6(C(=O)Nc7cc(Cl)ccc76)[C@H]5c5cccc(Cl)c5F)CC4)[C@@H](C(=O)NS(C)(=O)=O)C3)cc21` (stereo partly drawn) [I-222], the DC50 is less than 10 nM.
As to `Cn1c(=O)n(C2CCC(=O)NC2=O)c2ccc(CCCN3CCN(C[C@H]4CC[C@H](NC(=O)[C@@H]5NC6(CCC(C)(C)CC6)[C@@]6(C(=O)Nc7cc(Cl)ccc76)[C@H]5c5ccnc(Cl)c5F)CC4)[C@@H](C(=O)O)C3)cc21` (stereo partly drawn) [I-223], the DC50 was less than 10 nM.
On the same count and under the same terms, under `Cn1c(=O)n(C2CCC(=O)NC2=O)c2ccc(C3CCN(CCN4CCN(C[C@H]5CC[C@H](NC(=O)[C@@H]6NC7(CCCCC7)[C@@]7(C(=O)Nc8cc(Cl)ccc87)[C@H]6c6cccc(Cl)c6F)CC5)[C@H](C(=O)O)C4)CC3)cc21` (stereo partly drawn) [I-227] stands less than 10 nM; under `Cn1c(=O)n(C2CCC(=O)NC2=O)c2ccc(CCCN3CCN(C[C@H]4CC[C@H](NC(=O)[C@@H]5NC6(CCCCC6)[C@@]6(C(=O)Nc7cc(Cl)ccc76)[C@H]5c5cccc(Cl)c5F)CC4)C[C@H]3C(=O)O)cc21` (stereo partly drawn) [I-229], less than 10 nM; under `Cn1c(=O)n(C2CCC(=O)NC2=O)c2ccc(CCCN3CCN(C[C@H]4CC[C@H](NC(=O)[C@@H]5NC6(CCCCC6)[C@@]6(C(=O)Nc7cc(Cl)ccc76)[C@H]5c5cccc(Cl)c5F)CC4)C(P(=O)(O)O)C3)cc21` (stereo partly drawn) [I-235], 10 to 100 nM.

A further assay deals with RS411 cells. In words: Cell Viability CTG Assay. In kind it is cell-based. Conditions: Homo sapiens, RS4-11, CellTiter Glo (CTG) cell viability, read-out: Average external-IC50. The protocol:
Compounds or DMSO 60 nL were stamped to the cell plate as the platemap. RS411 cells were centrifuged at 800 rpm for 5 min, suspended with culture medium, and counted with Countess (Invitrogen). The cell density was adjusted to the recommend information. 30 μL of cell solution (1000 cells/well) was added to the assay plate as the platemap and 30 μL of media was added to column 2 and column 23 as the platemap. The plate was spun down briefly. The final concentration of the compounds started at 10 μM (3 fold dilution and 11 doses) and final DMSO concentration was 0.2%. The plate was spun down briefly and incubated at 37° C., 5% CO2 for 1 day. […] 30 μL CellTiter Glo reagent was added to each well and the plate was centrifuged at 1000 rpm for 30 sec. The plate was shaken for 1 min and centrifuged at 1000 rpm for 30 sec. The plate was incubated at RT for 10 min to stabilize the luminescent signal and the luminescence was read by EnVision.
The letter codes for IC50 indicate the concentration of compound required to affect 50% of cells: A (<0.005 μM), B (0.005-0.05 μM), C (0.05-0.5 μM), and D (>0.5 μM).
In general terms: ATP-based viability assays read luminescence as a measure of living cells.
Turning to `Cn1c(=O)n(C2CCC(=O)NC2=O)c2ccc(C#CC3CCN(C(=O)[C@@H]4CC[C@@H](NC(=O)[C@@H]5NC6(CCC(C)(C)CC6)[C@@]6(C(=O)Nc7cc(Cl)ccc76)[C@H]5c5cccc(Cl)c5F)CO4)CC3)cc21` (stereo partly drawn) [I-36], the IC50 (as a rule, the concentration needed to halve the response being measured) was less than 5 nM.
Same read-out and setting: under `COc1cc2c(cc1OC(C)C)[C@H](c1ccc(Cl)cc1)N(c1ccc(N(C)CC3CCN(CCCc4ccc5c(c4)n(C)c(=O)n5C4CCC(=O)NC4=O)C(=O)C3)cc1)C(=O)C2` (stereo partly drawn) [I-68] stands less than 5 nM; under `Cn1c(=O)n(C2CCC(=O)NC2=O)c2ccc(C3(C(=O)O)CCN(C(=O)[C@H]4CC[C@H](NC(=O)[C@@H]5NC6(CCCCC6)C6(C(=O)Nc7cc(Cl)ccc76)[C@H]5c5cccc(Cl)c5F)CC4)CC3)cc21` (stereo partly drawn) [I-84, 1-((1R,4r)-4-((3′R,4′S,5′R)-6″-chloro-4′-(3-chloro-2-fluorophenyl)-2″-oxodispiro[cyclohexane-1,2′-pyrrolidine-3′,3″-indoline]-5′-carboxamido)cyclohexane-1-carbonyl)-4-(1-(2,6-dioxopiperidin-3-yl)-3-methyl-2-oxo-2,3-dihydro-1H-benzo[d]imidazol-5-yl)piperidine-4-carboxylic acid], 50 to 500 nM.
The same measure, in the same setting: in the case of `Cn1c(=O)n(C2CCC(=O)NC2=O)c2ccc(CCCS(=O)(=O)NC(=O)[C@H]3CC[C@H](NC(=O)[C@@H]4NC5(CCCCC5)[C@@]5(C(=O)Nc6cc(Cl)ccc65)[C@H]4c4cccc(Cl)c4F)CC3)cc21` (stereo partly drawn) [I-100] it was 50 to 500 nM.
Regarding `CN1C(=O)CCC(n2c(=O)n(C)c3cc(C4CCN(C[C@H]5CC[C@H](NC(=O)[C@@H]6NC7(CCCCC7)[C@@]7(C(=O)Nc8cc(Cl)ccc87)[C@H]6c6cccc(Cl)c6F)CC5)CC4)ccc32)C1=O` (stereo partly drawn) [I-101], the IC50 lay in the range of 5 to 50 nM.

The values are drawn from patent US20250034147A1, “MDM2 DEGRADERS AND USES THEREOF” (Kymera Therapeutics, Inc., priority 2021, published 2025).
